For this assay, the target named is T1, Human HPK1, catalytic domain (Homo sapiens, UniProt Q92918).
T1 construct: purchased Carna
T1 sequence (Q92918 1-346): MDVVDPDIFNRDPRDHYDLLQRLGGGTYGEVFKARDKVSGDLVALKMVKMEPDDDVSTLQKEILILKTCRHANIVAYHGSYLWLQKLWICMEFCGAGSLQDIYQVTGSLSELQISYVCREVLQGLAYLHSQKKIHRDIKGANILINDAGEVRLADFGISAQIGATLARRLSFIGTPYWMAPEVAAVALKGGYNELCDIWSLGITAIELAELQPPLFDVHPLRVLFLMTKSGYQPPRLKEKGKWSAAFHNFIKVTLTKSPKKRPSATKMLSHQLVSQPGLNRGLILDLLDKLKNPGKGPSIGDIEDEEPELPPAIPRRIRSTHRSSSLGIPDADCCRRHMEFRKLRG
The experiment in a line: HPK1-SLP76 TR-FRET assay. It counts as biochemical. Particulars: 75 pM HPK1, 10 uM ATP, 10 nM SLP76, 30 min compound pre-incubation.

As to `COc1cc2c(cc1Nc1ncc(C(N)=O)c(Nc3cccc4c3CCNC4=O)n1)CN(C)CC2` [Example 7-27, 2-[(6-methoxy-2-methyl-1,2,3,4-tetrahydroisoquinolin-7-yl)amino]-4-[(1-oxo-1,2,3,4-tetrahydroisoquinolin-5-yl)amino]pyrimidine-5-carboxamide], the IC50 was found to be 0.13 nM.
Molecule `NC(=O)c1cnc(Nc2cnn(C3CCNCC3)c2)nc1Nc1cccc2c1CCNC2=O` [Example 7-52, 4-[(1-oxo-1,2,3,4-tetrahydroisoquinolin-5-yl)amino]-2-{[1-(piperidin-4-yl)-1H-pyrazol-4-yl]amino}pyrimidine-5-carboxamide] gave an IC50 of 0.55 nM.
As for `CS(=O)(=O)c1ccc(Nc2ncc(C(N)=O)c(Nc3cccc4c3CCNC4)n2)cc1` [Example 7-1, 2-{[4-(methylsulfonyl)phenyl]amino}-4-[(1,2,3,4-tetrahydroisoquinolin-5-yl)amino]pyrimidine-5-carboxamide], the figure is 0.66 nM; as for `COc1cc2c(cc1Nc1ncc(C(N)=O)c(Nc3ccccc3Br)n1)CN(C(=O)C1(N(C)C)CCC1)CC2` [Example 12-7, 4-[(2-bromophenyl)amino]-2-({2-[1-(dimethylamino)cyclobutane-1-carbonyl]-6-methoxy-1,2,3,4-tetrahydroisoquinolin-7-yl}amino)pyrimidine-5-carboxamide], 1.96 nM; as for `CN1CCc2cc(Cl)c(Nc3ncc(C(N)=O)c(Nc4cccc5c4CCNC5=O)n3)cc2C1` [Example 7-36, 2-[(6-chloro-2-methyl-1,2,3,4-tetrahydroisoquinolin-7-yl)amino]-4-[(1-oxo-1,2,3,4-tetrahydroisoquinolin-5-yl)amino]pyrimidine-5-carboxamide], 0.37 nM.
`NC(=O)c1cnc(Nc2ccc(F)cc2)nc1Nc1cccc2c1CCNC2=O` [Example 25-5, 2-[(4-fluorophenyl)amino]-4-[(1-oxo-1,2,3,4-tetrahydroisoquinolin-5-yl)amino]pyrimidine-5-carboxamide] had an IC50 of 217 nM. This IC50 is about 590-fold higher than that of the molecule before.
Then `CC(C1CC1)n1cc(Nc2ncc(C(N)=O)c(Nc3cccc4c3CCNC4=O)n2)cn1` (centres unmarked) [Example 7-46, 2-{[1-(1-cyclopropylethyl)-1H-pyrazol-4-yl]amino}-4-[(1-oxo-1,2,3,4-tetrahydroisoquinolin-5-yl)amino]pyrimidine-5-carboxamide], with 0.28 nM.
Consider `COc1cc(F)c(Nc2nc(Nc3cc4c(cc3OC)CCN(C)C4)ncc2C(N)=O)c(F)c1` [Example 4-15, 4-[(2,6-difluoro-4-methoxyphenyl)amino]-2-[(6-methoxy-2-methyl-1,2,3,4-tetrahydroisoquinolin-7-yl)amino]pyrimidine-5-carboxamide], for which 0.53 nM corresponded to half-maximal inhibition (IC50).
In turn, `COc1cc2c(cc1Nc1ncc(C(N)=O)c(NC3CCC(F)(F)C3)n1)CN(C)CC2` (centres unmarked) [Example 26-38, 4-[(3,3-difluorocyclopentyl)amino]-2-[(6-methoxy-2-methyl-1,2,3,4-tetrahydroisoquinolin-7-yl)amino]pyrimidine-5-carboxamide] had an IC50 of 1.07 nM.
As for `COc1cc2c(cc1Nc1ncc(C(N)=O)c(NC3CCC(c4ccccc4)C3)n1)CN(C)CC2` (centres unmarked) [Example 26-12, 2-[(6-methoxy-2-methyl-1,2,3,4-tetrahydroisoquinolin-7-yl)amino]-4-[(3-phenylcyclopentyl)amino]pyrimidine-5-carboxamide], the figure is 18.1 nM; as for `NC(=O)c1cnc(Nc2ccc(F)c(Cl)c2)nc1Nc1cccc2c1CCNC2=O` [Example 25-6, 2-[(3-chloro-4-fluorophenyl)amino]-4-[(1-oxo-1,2,3,4-tetrahydroisoquinolin-5-yl)amino]pyrimidine-S-carboxamide], 580 nM; as for `COc1cc2c(cc1Nc1ncc(C(N)=O)c(NC3C[C@@H]4CC[C@H]3C4)n1)CN(C)CC2` (stereo partly drawn) [Example 26-14, 4-{[(1S,4R)-bicyclo[2.2.1]heptan-2-yl]amino}-2-[(6-methoxy-2-methyl-1,2,3,4-tetrahydroisoquinolin-7-yl)amino]pyrimidine-5-carboxamide], 0.14 nM.
As for `COc1cc2c(cc1Nc1ncc(C(N)=O)c(N[C@@H]3CCCC[C@H]3C(C)(C)O)n1)CN(C)CC2` [Example 26-42, 4-{[(1R,2R)-2-(2-hydroxypropan-2-yl)cyclohexyl]amino}-2-[(6-methoxy-2-methyl-1,2,3,4-tetrahydroisoquinolin-7-yl)amino]pyrimidine-5-carboxamide], the figure is 205 nM; as for `COc1cc2c(cc1Nc1ncc(C(N)=O)c(Nc3ccccc3Br)n1)CN(C(C)C)CC2` [Example 9-8, 4-[(2-bromophenyl)amino]-2-{[6-methoxy-2-(propan-2-yl)-1,2,3,4-tetrahydroisoquinolin-7-yl]amino}pyrimidine-5-carboxamide], 16.4 nM; as for `COc1cc2c(cc1Nc1ncc(C(N)=O)c(Nc3cccc(C)c3F)n1)CN(C)CC2` [Example 4-14], 0.18 nM.
In turn, `COc1cc2c(cc1Nc1ncc(C(N)=O)c(NCC3CCNCC3)n1)CN(C)CC2` [Example 26-72, 2-[(6-methoxy-2-methyl-1,2,3,4-tetrahydroisoquinolin-7-yl)amino]-4-{[(piperidin-4-yl)methyl]amino}pyrimidine-5-carboxamide] gave an IC50 of 1.23 nM.
With `COc1cc2c(cc1Nc1ncc(C(N)=O)c(NC3CCc4ccc(F)cc43)n1)CN(C)CC2` (centres unmarked) [Example 26-25, 4-[(6-fluoro-2,3-dihydro-1H-inden-1-yl)amino]-2-[(6-methoxy-2-methyl-1,2,3,4-tetrahydroisoquinolin-7-yl)amino]pyrimidine-5-carboxamide], the IC50 came to 0.22 nM.
In the case of `COc1cc2c(cc1Nc1ncc(C(N)=O)c(Nc3ccccc3Br)n1)CN(C1CC(CO)C1)CC2` (single isomer, unassigned) [Example 9-4, 4-((2-bromophenyl)amino)-2-((2-(3-(hydroxymethyl)cyclobutyl)-6-methoxy-1,2,3,4-tetrahydroisoquinolin-7-yl)amino)pyrimidine-5-carboxamide], the IC50 came to 0.18 nM.
As for `COc1cc2c(cc1Nc1ncc(C(N)=O)c(Nc3cccc(C#N)c3F)n1)CN(C)CC2` [Example 7-30, 4-[(3-cyano-2-fluorophenyl)amino]-2-[(6-methoxy-2-methyl-1,2,3,4-tetrahydroisoquinolin-7-yl)amino]pyrimidine-5-carboxamide], the figure is 2.38 nM.
Molecule `NC(=O)c1cnc(Nc2cccc3sccc23)nc1Nc1cccc2c1CCNC2=O` [Example 25-43, 2-[(1-benzothiophen-4-yl)amino]-4-[(1-oxo-1,2,3,4-tetrahydroisoquinolin-5-yl)amino]pyrimidine-5-carboxamide] displayed an IC50 of 77.8 nM.
Then `CC(C)(C#N)c1cccc(Nc2ncc(C(N)=O)c(Nc3cccc4c3CCNC4=O)n2)c1` [Example 25-3, 2-{[3-(2-cyanopropan-2-yl)phenyl]amino}-4-[(1-oxo-1,2,3,4-tetrahydroisoquinolin-5-yl)amino]pyrimidine-5-carboxamide], with 1.14 nM; and `COc1cc2c(cc1Nc1ncc(C(N)=O)c(Nc3ccccc3Br)n1)CN(S(C)(=O)=O)CC2` [Example 10-5, 4-[(2-bromophenyl)amino]-2-{[6-methoxy-2-(methylsulfonyl)-1,2,3,4-tetrahydroisoquinolin-7-yl]amino}pyrimidine-5-carboxamide], with 43.2 nM; and `CN1Cc2ccc(Nc3ncc(C(N)=O)c(Nc4cccc5c4CCNC5)n3)cc2C1=O` [Example 7-64, 2-[(2-methyl-3-oxo-2,3-dihydro-1H-isoindolin-5-yl)amino]-4-[(1,2,3,4-tetrahydroisoquinolin-5-yl)amino]pyrimidine-5-carboxamide], with 3.65 nM.
Then `COc1cc2c(cc1Nc1ncc(C(N)=O)c(Nc3cc(C)nn3-c3ccccc3)n1)CN(C)CC2` [Example 7-92, 2-((6-methoxy-2-methyl-1,2,3,4-tetrahydroisoquinolin-7-yl)amino)-4-((3-methyl-1-phenyl-1H-pyrazol-5-yl)amino)pyrimidine-5-carboxamide], with 10.9 nM; and `COc1cc2c(cc1Nc1ncc(C(N)=O)c(Nc3cc(C(F)(F)F)cc4c3CCNC4)n1)CN(C)CC2` [Example 7-66, 2-[(6-methoxy-2-methyl-1,2,3,4-tetrahydroisoquinolin-7-yl)amino]-4-{[7-(trifluoromethyl)-1,2,3,4-tetrahydroisoquinolin-5-yl]amino}pyrimidine-5-carboxamide], with 0.15 nM.
`COc1cc2c(cc1Nc1ncc(C(N)=O)c(NC3CCCCC3)n1)CN(C)CC2` [Example 26-2, 4-(cyclohexylamino)-2-[(6-methoxy-2-methyl-1,2,3,4-tetrahydroisoquinolin-7-yl)amino]pyrimidine-5-carboxamide] yielded a half-inhibitory concentration (IC50) of 0.6 nM.
`COc1ncccc1Nc1ncc(C(N)=O)c(Nc2cccc3c2CCNC3=O)n1` [Example 25-45, 2-[(2-methoxypyridin-3-yl)amino]-4-[(1-oxo-1,2,3,4-tetrahydroisoquinolin-5-yl)amino]pyrimidine-S-carboxamide] registered an IC50 of 41.3 nM. This IC50 lies about 69-fold higher than the previous one.
`C#C[C@H]1CC[C@@H](Nc2nc(Nc3cc4c(cc3OC)CCN(C)C4)ncc2C(N)=O)CC1` [Example 26-39, 4-[(cis-4-ethynylcyclohexyl)amino]-2-[(6-methoxy-2-methyl-1,2,3,4-tetrahydroisoquinolin-7-yl)amino]pyrimidine-5-carboxamide] displayed an IC50 of 0.34 nM.
For `COc1cc2c(cc1Nc1ncc(C(N)=O)c(NC3C4CC3C4)n1)CN(C)CC2` (centres unmarked) [Example 26-4, 4-[(bicyclo[1.1.1]pentan-2-yl)amino]-2-[(6-methoxy-2-methyl-1,2,3,4-tetrahydroisoquinolin-7-yl)amino]pyrimidine-5-carboxamide], half-maximal inhibition (IC50) was put at 1.33 nM.

The values are drawn from US20230416225A1, “DIAMINOPYRIMIDINE CARBOXAMIDE INHIBITORS OF HPK1” (MERCK SHARP & DOHME LLC, priority 2020, published 2023).
